Experimental data taken from ChEMBL document CHEMBL4177703, “The discovery and optimization of naphthalene-linked P2-P4 Macrocycles as inhibitors of HCV NS3 protease” (Bioorg Med Chem Lett, 2018).
One block for each compound: values may come before it.

What was measured:
[1] = Oral bioavailability in rat at 15 mg/kg; format: ADME, organism-based; details: in vivo
[2] = Clearance in rat at 5 mg/kg, iv or 15 mg/kg, po; format: ADME, organism-based; details: in vivo
[3] = Half life in human liver microsomes in presence of NADPH; format: ADME, microsome
[4] = Drug concentration in Sprague-Dawley rat liver at 15 mg/kg, po after 6 hrs; format: ADME, organism-based; details: read-out: Drug uptake
[5] = AUC in Sprague-Dawley rat at 15 mg/kg, po after 6 hrs; format: ADME, organism-based; set-up: dose 15 mg/kg, time < 6 hr, route oral; details: in vivo
[6] = Clearance in Sprague-Dawley rat at 5 mg/kg, iv after 6 hrs; format: ADME, organism-based; details: in vivo
[7] = Drug concentration in Sprague-Dawley rat liver at 5 mg/kg, iv after 6 hrs; format: ADME, organism-based; details: read-out: Drug uptake
[8] = AUC in Sprague-Dawley rat at 5 mg/kg, iv after 6 hrs; format: ADME, organism-based; set-up: time < 6 hr, dose 5 mg/kg, route intravenous; details: in vivo
[9] = AUC in Sprague-Dawley rat at 15 mg/kg, po after 24 hrs; format: ADME, organism-based; set-up: time < 24 hr, dose 15 mg/kg, route oral; details: in vivo
[10] = Oral bioavailability in Sprague-Dawley rat at 15 mg/kg after 24 hrs; format: ADME, organism-based; details: in vivo
[11] = Half life in Sprague-Dawley rat at 5 mg/kg, iv after 24 hrs; format: ADME, organism-based; details: in vivo
[12] = AUC in Sprague-Dawley rat at 5 mg/kg, iv after 24 hrs; format: ADME, organism-based; set-up: dose 5 mg/kg, time < 24 hr, route intravenous; details: in vivo
[13] = Half life in Sprague-Dawley rat at 15 mg/kg, po after 24 hrs; format: ADME, organism-based; details: in vivo
[14] = Clearance in Sprague-Dawley rat at 5 mg/kg, iv after 24 hrs; format: ADME, organism-based; details: in vivo
[15] = Cardiotoxicity in Langendorff perfused rabbit heart assessed as change in sinus node recovery time at 10 uM measured over 20 mins by electrocardiography (reference value: 0%); format: toxicity, tissue-based, Oryctolagus cuniculus
[16] = Cardiotoxicity in Langendorff perfused rabbit heart assessed as change in QRS interval at 10 uM measured over 30 mins by electrocardiography (reference value: 0%); format: toxicity, tissue-based, Oryctolagus cuniculus; details: 0.5 h
[17] = Cardiotoxicity in Langendorff perfused rabbit heart assessed as change in heart rate at 10 uM measured over 20 mins by electrocardiography (reference value: 0%); format: toxicity, tissue-based, Oryctolagus cuniculus
[18] = Cardiotoxicity in Langendorff perfused rabbit heart assessed as change in QT interval at 10 uM measured over 20 mins by electrocardiography (reference value: 0%); format: toxicity, tissue-based, Oryctolagus cuniculus
[19] = Cardiotoxicity in Langendorff perfused rabbit heart assessed as change in PR interval at 10 uM measured over 30 mins by electrocardiography (reference value: 0%); format: toxicity, tissue-based, Oryctolagus cuniculus; details: 0.5 h
[20] = Cardiotoxicity in Langendorff perfused rabbit heart assessed as change in PR interval at 10 uM measured over 10 mins by electrocardiography (reference value: 0%); format: toxicity, tissue-based, Oryctolagus cuniculus
[21] = Cardiotoxicity in Langendorff perfused rabbit heart assessed as change in heart rate at 10 uM measured over 30 mins by electrocardiography (reference value: 0%); format: toxicity, tissue-based, Oryctolagus cuniculus; details: 0.5 h
[22] = Cardiotoxicity in Langendorff perfused rabbit heart assessed as change in coronary flow at 10 uM measured over 20 mins by electrocardiography (reference value: 0%); format: toxicity, tissue-based, Oryctolagus cuniculus
[23] = Cardiotoxicity in Langendorff perfused rabbit heart assessed as change in QT interval at 10 uM measured over 10 mins by electrocardiography (reference value: 0%); format: toxicity, tissue-based, Oryctolagus cuniculus
[24] = Cardiotoxicity in Langendorff perfused rabbit heart assessed as change in coronary flow at 10 uM measured over 30 mins by electrocardiography (reference value: 0%); format: toxicity, tissue-based, Oryctolagus cuniculus; details: 0.5 h
[25] = Cardiotoxicity in Langendorff perfused rabbit heart assessed as change in coronary flow at 10 uM measured over 10 mins by electrocardiography (reference value: 0%); format: toxicity, tissue-based, Oryctolagus cuniculus
[26] = Cardiotoxicity in Langendorff perfused rabbit heart assessed as change in QRS interval at 10 uM measured over 20 mins by electrocardiography (reference value: 0%); format: toxicity, tissue-based, Oryctolagus cuniculus
[27] = Drug concentration in Sprague-Dawley rat liver at 15 mg/kg, po after 24 hrs; format: ADME, organism-based; details: read-out: Drug uptake
[28] = Cardiotoxicity in Langendorff perfused rabbit heart assessed as change in QRS interval at 10 uM measured over 10 mins by electrocardiography (reference value: 0%); format: toxicity, tissue-based, Oryctolagus cuniculus
[29] = Cardiotoxicity in Langendorff perfused rabbit heart assessed as change in sinus node recovery time at 10 uM measured over 10 mins by electrocardiography (reference value: 0%); format: toxicity, tissue-based, Oryctolagus cuniculus
[30] = Cardiotoxicity in Langendorff perfused rabbit heart assessed as change in PR interval at 10 uM measured over 20 mins by electrocardiography (reference value: 0%); format: toxicity, tissue-based, Oryctolagus cuniculus
[31] = Cardiotoxicity in Langendorff perfused rabbit heart assessed as change in heart rate at 10 uM measured over 10 mins by electrocardiography (reference value: 0%); format: toxicity, tissue-based, Oryctolagus cuniculus
[32] = Drug concentration in Sprague-Dawley rat liver at 5 mg/kg, iv after 24 hrs; format: ADME, organism-based; details: read-out: Drug uptake
[33] = Cardiotoxicity in Langendorff perfused rabbit heart assessed as change in QT interval at 10 uM measured over 30 mins by electrocardiography (reference value: 0%); format: toxicity, tissue-based, Oryctolagus cuniculus; details: 0.5 h
[34] = Cardiotoxicity in Langendorff perfused rabbit heart assessed as change in sinus node recovery time at 10 uM measured over 30 mins by electrocardiography (reference value: 0%); format: toxicity, tissue-based, Oryctolagus cuniculus; details: 0.5 h

half-life [3]: 0.967 h
Structure (SMILES): C=C[C@@H]1C[C@]1(NC(=O)[C@@H]1C[C@]2(OC)CN1C(=O)[C@H](C(C)(C)C)NC(=O)OCC(C)(C)CCCCc1cc3cc2ccc3cc1OC)C(=O)NS(=O)(=O)C1CC1

half-life [3]: 1.27 h
AUC at 24 h [9]: 87 µM·h
bioavailability [10]: 100%
half-life [11]: 9.6 h
concentration at 24 h [27]: 85 µM
AUC at 24 h [12]: 29 µM·h
concentration at 24 h [32]: 100 µM
half-life [13]: 3.9 h
clearance [14]: 3.5 mL/min/kg
Structure (SMILES): COc1cc2ccc3cc2cc1CCCC(C)(C)CCOC(=O)N[C@@H](C(C)(C)C)C(=O)N1C[C@@]3(OC)C[C@H]1C(=O)N[C@]1(C(=O)NS(=O)(=O)C2CC2)C[C@H]1C1CC1
Activity [15]: 16%
Activity [16]: 31%
Activity [17]: -5%
Activity [18]: 0%
Activity [19]: 0%
Activity [20]: 4%
Activity [21]: -16%
Activity [22]: 14%
Activity [23]: -4%
Activity [24]: -10%
Activity [25]: 43%
Activity [26]: 31%
Activity [28]: 17%
Activity [29]: 3%
Activity [30]: 0%
Activity [31]: 5%
Activity [33]: 0%

half-life [3]: 1.65 h
AUC at 24 h [9]: 59 µM·h
bioavailability [10]: 34%
half-life [11]: 9.5 h
AUC at 24 h [12]: 57 µM·h
half-life [13]: 5.3 h
clearance [14]: 2 mL/min/kg
Structure (SMILES): COc1cc2ccc3cc2cc1CCCCCCOC(=O)N[C@@H](C(C)(C)C)C(=O)N1C[C@@]3(OC)C[C@H]1C(=O)N[C@]1(C(=O)NS(=O)(=O)C2CC2)C[C@H]1C1CC1
Activity [15]: 6%
Activity [16]: 43%
Activity [17]: -5%
Activity [18]: 10%
Activity [19]: 18%
Activity [20]: 2%
Activity [21]: -13%
Activity [22]: 21%
Activity [23]: 7%
Activity [24]: 19%
Activity [25]: 18%
Activity [26]: 32%
Activity [28]: 10%
Activity [29]: 4%
Activity [30]: 9%
Activity [31]: -2%
Activity [33]: 7%
Activity [34]: 19%

half-life [3]: 1.38 h
Structure (SMILES): COc1cc2ccc3cc2cc1CCCCC(C)(C)COC(=O)N[C@@H](C(C)(C)C)C(=O)N1C[C@@]3(OC)C[C@H]1C(=O)N[C@]1(C(=O)NS(=O)(=O)C2CC2)C[C@H]1C1CC1

Continued, compound first:

Structure (SMILES): C=C[C@@H]1C[C@]1(NC(=O)[C@@H]1C[C@@H](Oc2ncc(OC)c3ccc(Cl)cc23)CN1C(=O)[C@@H](NC(=O)OC(C)(C)C)C(C)(C)C)C(=O)NS(=O)(=O)C1CC1
bioavailability [1]: 12%
clearance [2]: 38 mL/min/kg

Structure (SMILES): C=C[C@@H]1C[C@]1(NC(=O)[C@@H]1C[C@]2(OC)CN1C(=O)[C@H](C(C)(C)C)NC(=O)OCCCCCCc1cc3cc2ccc3cc1OC)C(=O)NS(=O)(=O)C1CC1
half-life [3]: 0.417 h
concentration at 6 h [4]: 108 µM
AUC at 6 h [5]: 27 µM·h
clearance [6]: 1.2 mL/min/kg
concentration at 6 h [7]: 95 µM
AUC at 6 h [8]: 90 µM·h

Structure (SMILES): COc1cc2ccc3cc2cc1OCCCN(C1CC1)CCOC(=O)N[C@@H](C(C)(C)C)C(=O)N1C[C@@]3(OC)C[C@H]1C(=O)N[C@]1(C(=O)NS(=O)(=O)C2CC2)C[C@H]1C1CC1
half-life [3]: 0.717 h
AUC at 24 h [9]: 18 µM·h
bioavailability [10]: 18%
half-life [11]: 20 h
AUC at 24 h [12]: 33 µM·h
half-life [13]: 8 h
clearance [14]: 3.5 mL/min/kg

Structure (SMILES): COC(=O)N1CCCOc2cc3cc(ccc3cc2OC)[C@]2(OC)C[C@@H](C(=O)N[C@]3(C(=O)NS(=O)(=O)C4CC4)C[C@H]3C3CC3)N(C2)C(=O)[C@H](C(C)(C)C)NC(=O)OCC1
half-life [3]: > 2 h

Structure (SMILES): C=C[C@@H]1C[C@]1(NC(=O)[C@@H]1C[C@]2(OC)CN1C(=O)[C@H](C(C)(C)C)NC(=O)OCCCCCOc1ccc3ccc2cc3c1)C(=O)NS(=O)(=O)C1CC1
half-life [3]: 0.367 h

Structure (SMILES): C=C[C@@H]1C[C@]1(NC(=O)[C@@H]1C[C@@](OC)(c2ccc3cc(OC)ccc3c2)CN1C(=O)[C@@H](NC(=O)OC(C)(C)C)C(C)(C)C)C(=O)NS(=O)(=O)C1CC1
half-life [3]: 0.35 h

Structure (SMILES): C=Cc1cc2cc([C@]3(OC)C[C@@H](C(=O)N[C@]4(C(=O)NS(=O)(=O)C5CC5)C[C@H]4C=C)N(C(=O)[C@@H](NC(=O)OC(C)(C)C)C(C)(C)C)C3)ccc2cc1OC
half-life [3]: 0.6 h

Structure (SMILES): C=C[C@@H]1C[C@]1(NC(=O)[C@@H]1C[C@]2(OC)CN1C(=O)[C@H](C(C)(C)C)NC(=O)OCCCCCCCCc1cc3cc2ccc3cc1OC)C(=O)NS(=O)(=O)C1CC1
half-life [3]: 0.55 h

Structure (SMILES): CO[C@@]12C[C@@H](C(=O)N[C@]3(C(=O)NS(=O)(=O)C4CC4)C[C@H]3C3CC3)N(C1)C(=O)[C@H](C(C)(C)C)NC(=O)OCCCCCOc1ccc3ccc2cc3c1
half-life [3]: 0.65 h
AUC at 24 h [9]: 3.6 µM·h
bioavailability [10]: 16%
half-life [11]: 4.6 h
concentration at 24 h [27]: 31 µM
AUC at 24 h [12]: 7.2 µM·h
concentration at 24 h [32]: 45 µM
half-life [13]: 4.2 h
clearance [14]: 19 mL/min/kg
